Measurements published in patent US20060069132A1, “Azolecarboxamide herbicides” (priority 2004, published 2006).
Like-named read-outs stand apart in the source and are kept apart here.

What was measured:
barnyardgrass = assay: Test A pre-/postemergence herbicide test; assay type: in vivo, Echinochloa crus-galli; conditions: for pest or weed control at 500 g/ha / pest or weed control at 2000 g/ha: Echinochloa crus-galli, 240 h
Method in brief: (§1)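 Visual injury rating on a 0–100 scale (0 no effect, 100 complete control) versus untreated controls, about ten days after treatment in greenhouse. Pre: directed soil spray onto seeded sandy loam. Post: spray to runoff on plants 2–10 cm tall at one- to two-leaf stage.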

large crabgrass = assay: Test A pre-/postemergence herbicide test; assay type: in vivo, Digitaria sanguinalis; conditions: for pest or weed control at 500 g/ha / pest or weed control at 2000 g/ha: Digitaria sanguinalis, 240 h
Method in brief: as §1

velvetleaf [1] = assay: Test B pre-/postemergence herbicide test; assay type: in vivo, Abutilon theophrasti; conditions: for Velvetleaf plant response rating: postemergence
Method in brief: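 Pre: seeds sown, then sprayed. Post: 1–4-leaf plants (2–18 cm) sprayed at the same time. Paddy: flooded, treated at 2-leaf stage. Formulation: non-phytotoxic solvent with surfactant. Greenhouse 13–15 days; visual 0–100 score relative to controls.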

Surinam grass = assay: Test C pre-/postemergence herbicide test; assay type: in vivo, Urochloa decumbens
Method in brief: (§2)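 Pre- and postemergence application, solvent/surfactant formulation; post at 1- to 4-leaf stage (2–18 cm). Greenhouse 12–14 d. Visual rating vs controls, 0 = no effect, 100 = complete control.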

corn = assay: Test C pre-/postemergence herbicide test; assay type: in vivo, Zea mays
Method in brief: as §2

kochia = assay: Test C pre-/postemergence herbicide test; assay type: in vivo, Kochia scoparia
Method in brief: as §2

morningglory = assay: Test C pre-/postemergence herbicide test; assay type: in vivo, Ipomoea coccinea; set-up: key to Plant response rating, Morningglory: 0 = no effect, 100 = complete control
Method in brief: as §2

velvetleaf [2] = assay: Test C pre-/postemergence herbicide test; assay type: in vivo, Abutilon theophrasti
Method in brief: as §2

[3] = tested on: smallflower umbrella sedge; assay: Test C flooded paddy test; assay type: in vivo, Cyperus difformis
[4] = Preemergence, 500 g ai/ha, scale 0 to 100, 0 no effect, 100 complete control
[5] = Postemergence, 500 g ai/ha, 0 to 100 scale, 0 no effect, 100 complete control
[6] = Postemergence, 2000 g ai/ha, 0 to 100 scale, 0 no effect, 100 complete control
[7] = Preemergence, 2000 g ai/ha, visual rating, 0 to 100 scale (0 no effect, 100 complete control)
[8] = preemergence, 500 g ai/ha, visual injury, 0 to 100 scale (0 no effect, 100 complete control)
[9] = 62 g ai/ha, preemergence, scale 0 to 100
[10] = 250 g ai/ha, scale 0-100, preemergence
[11] = 500 g ai/ha, scale 0 to 100 (0 no effect, 100 complete control), visual, 12 to 14 days, preemergence
[12] = 125 g ai/ha, scale 0 (no effect) to 100 (complete control), visual, 12 to 14 days, preemergence

SMILES: CCNC(=O)c1ccc(F)c(NC(=O)c2cc(C(C)(C)C)nn2CC)c1 [Compound 2, 3-(1,1-dimethylethyl)-1-ethyl-N-[5-[(ethylamino)carbonyl]-2-fluorophenyl]-1H-pyrazole-5-carboxamide]
- pest or weed control at 500 g/ha (barnyardgrass; post-emergence, Postemergence, 500 g ai/ha, 0 to 100 scale, 0 no effect, 100 complete control, read-out: Plant response rating, Barnyardgrass): 100%
- pest or weed control at 2000 g/ha (barnyardgrass; post-emergence, Postemergence, 2000 g ai/ha, 0 to 100 scale, 0 no effect, 100 complete control, read-out: Plant response rating, Barnyardgrass): 100%
- pest or weed control at 500 g/ha (barnyardgrass; pre-emergence, Preemergence, 500 g ai/ha, visual rating, 0 to 100 scale (0 no effect, 100 complete control), read-out: Barnyardgrass plant response rating): 100%
- pest or weed control at 2000 g/ha (barnyardgrass; pre-emergence, Preemergence, 2000 g ai/ha, 0 to 100 scale, 0 no effect, 100 complete control, read-out: Barnyardgrass plant response rating): 100%
- pest or weed control at 500 g/ha (large crabgrass; post-emergence, Postemergence, 500 g ai/ha, 0 to 100 scale, 0 no effect, 100 complete control, read-out: Plant response rating, Crabgrass, Large): 85%
- pest or weed control at 2000 g/ha (large crabgrass; post-emergence, Postemergence, 2000 g ai/ha, 0 to 100 scale, 0 no effect, 100 complete control, read-out: Plant response rating, Crabgrass, Large): 100%
- pest or weed control at 500 g/ha (large crabgrass; pre-emergence, Preemergence, 500 g ai/ha, visual rating, 0 to 100 scale (0 no effect, 100 complete control), read-out: Crabgrass, Large plant response rating): 100%
- pest or weed control at 2000 g/ha (large crabgrass; pre-emergence, Preemergence, 2000 g ai/ha, 0 to 100 scale, 0 no effect, 100 complete control, read-out: Crabgrass, Large plant response rating): 100%
- pest or weed control at 125 g/ha (velvetleaf [1]; Abutilon theophrasti, post-emergence, 336 h, Postemergence, 125 g ai/ha, scale 0 (no effect) to 100 (complete control), read-out: Velvetleaf plant response rating): 20%
- pest or weed control at 500 g/ha (velvetleaf [1]; Abutilon theophrasti, post-emergence, 336 h, Postemergence, 500 g ai/ha, visual rating after 13 to 15 days, scale 0 (no effect) to 100 (complete control), read-out: Plant response rating, Velvetleaf): 50%
- pest or weed control at 500 g/ha (velvetleaf [1]; Abutilon theophrasti, pre-emergence, 336 h, Preemergence, 500 g ai/ha, scale 0 to 100, read-out: Velvetleaf plant response rating): 100%
- Plant response rating (0 = no effect, 100 = complete control), Surinam Grass (Surinam grass; 62 g ai/ha, preemergence): 90
- Surinam Grass plant response rating (Surinam grass; [4]): 100
- pest or weed control at 250 g/ha (Surinam grass; Urochloa decumbens, pre-emergence, 312 h, 250 g ai/ha, scale 0 to 100 (0 no effect, 100 complete control), visual, 12 to 14 days, read-out: Plant response rating, Surinam Grass): 100%
- Plant response rating (0 = no effect, 100 = complete control), Corn (corn; 62 g ai/ha, preemergence): 0
- Corn plant response rating (corn; [4]): 60
- Corn plant response rating (crop injury, 0 = no effect, 100 = complete kill) at 125 g/ha (corn; Zea mays, pre-emergence, 312 h, 125 g ai/ha, scale 0-100): 30%
- Corn plant response rating (crop injury, 0 = no effect, 100 = complete kill) at 250 g/ha (corn; Zea mays, pre-emergence, 312 h, 250 g ai/ha, scale 0 to 100 (0 no effect, 100 complete control), visual, 12 to 14 days): 35%
- Plant response rating (0 = no effect, 100 = complete control), Kochia (kochia; 62 g ai/ha, preemergence): 100
- pest or weed control at 125 g/ha (kochia; Bassia scoparia, pre-emergence, 125 g ai/ha, scale 0-100, read-out: Plant response rating, Kochia): 100%
- pest or weed control at 250 g/ha (kochia; Bassia scoparia, pre-emergence, 250 g ai/ha, scale 0 to 100 (0 no effect, 100 complete control), visual, 12 to 14 days, read-out: Plant response rating, Kochia): 100%
- Kochia plant response rating (kochia; [4]): 100
- Plant response rating (0 = no effect, 100 = complete control), Morningglory (morningglory; 62 g ai/ha, preemergence): 5
- pest or weed control at 250 g/ha (morningglory; Ipomoea, pre-emergence, 250 g ai/ha, scale 0 to 100 (0 no effect, 100 complete control), visual, 12 to 14 days, read-out: Plant response rating, Morningglory): 45%
- Morningglory plant response rating (morningglory; [4]): 100
- Plant response rating (0 = no effect, 100 = complete control), Velvetleaf (velvetleaf [2]; 62 g ai/ha, preemergence): 60
- pest or weed control at 250 g/ha (velvetleaf [2]; Abutilon theophrasti, pre-emergence, 250 g ai/ha, scale 0 to 100 (0 no effect, 100 complete control), visual, 12 to 14 days, read-out: Plant response rating, Velvetleaf): 100%
- Velvetleaf plant response rating (velvetleaf [2]; [4]): 100
- pest or weed control at 62 g/ha ([3]; Cyperus difformis, 62 g ai/ha, scale 0 to 100 (0 no effect, 100 complete control), read-out: Sedge, Umbrella plant response rating): 75%
- pest or weed control at 125 g/ha ([3]; Cyperus difformis, 125 g ai/ha, scale of 0 to 100, 0 is no effect, 100 is complete control, read-out: Sedge, Umbrella plant response rating): 75%
- pest or weed control at 250 g/ha ([3]; Cyperus difformis, 250 g ai/ha, visual rating after 12 to 14 days, scale 0 to 100 (0 no effect, 100 complete control), read-out: Plant response rating, Sedge, Umbrella): 85%
- pest or weed control at 500 g/ha ([3]; Cyperus difformis, 500 g ai/ha, visual rating after 12 to 14 days, scale 0 to 100 (0 no effect, 100 complete control), read-out: Plant response rating, Sedge, Umbrella): 95%

SMILES: CCc1nn(C(C)(C)C)cc1C(=O)Nc1cc(C(=O)N(CC)CC)ccc1F [Compound 223]
- Barnyardgrass plant response rating (barnyardgrass; [5]): 10
- Plant response rating, Barnyardgrass (barnyardgrass; [6]): 55
- Barnyardgrass plant response rating (barnyardgrass; [7]): 80
- Barnyardgrass plant response rating (barnyardgrass; [8]): 55
- Crabgrass, Large plant response rating (large crabgrass; [5]): 20
- Plant response rating, Crabgrass, Large (large crabgrass; [6]): 25
- Crabgrass, Large plant response rating (large crabgrass; [7]): 90
- Crabgrass, Large plant response rating (large crabgrass; [8]): 90
- Velvetleaf plant response rating (0 to 100 scale) (velvetleaf [1]; 125 g ai/ha, 0 = no effect, 100 = complete control, preemergence): 30
- Plant response rating, Velvetleaf (velvetleaf [1]; 500 g ai/ha, visual rating, 0 = no effect, 100 = complete control, preemergence): 100
- Velvetleaf plant response rating (velvetleaf [1]; 125 g ai/ha, visual rating, scale 0 (no effect) to 100 (complete control)): 20
- Velvetleaf plant response rating (velvetleaf [1]; 500 g ai/ha, visual rating, scale 0 (no effect) to 100 (complete control)): 20
- Plant response rating, Surinam Grass (Surinam grass; [9]): 50
- Plant response rating, Surinam Grass (Surinam grass; [10]): 70
- Plant response rating, Surinam Grass (Surinam grass; [11]): 85
- Plant response rating, Corn (corn; [9]): 0
- Plant response rating, Corn (corn; [12]): 0
- Plant response rating, Corn (corn; [10]): 5
- Plant response rating, Corn (corn; [11]): 50
- Plant response rating, Kochia (kochia; [9]): 85
- Plant response rating, Kochia (kochia; [12]): 90
- Plant response rating, Kochia (kochia; [10]): 100
- Plant response rating, Kochia (kochia; [11]): 100
- Plant response rating, Morningglory (morningglory; [9]): 0
- Plant response rating, Morningglory (morningglory; [12]): 0
- Plant response rating, Morningglory (morningglory; [10]): 5
- Plant response rating, Morningglory (morningglory; [11]): 100
- Plant response rating, Velvetleaf (velvetleaf [2]; [9]): 0
- Plant response rating, Velvetleaf (velvetleaf [2]; [10]): 100
- Plant response rating, Velvetleaf (velvetleaf [2]; [11]): 100
- Sedge, Umbrella plant response rating ([3]; 62 g ai/ha, scale 0 to 100 (0 no effect, 100 complete control)): 0
- Sedge, Umbrella plant response rating ([3]; 125 g ai/ha, scale 0 to 100 (0 no effect, 100 complete control)): 0
- Sedge, Umbrella plant response rating ([3]; 250 g ai/ha, scale of 0 to 100, 0 is no effect, 100 is complete control): 65
- Plant response rating, Sedge, Umbrella ([3]; 500 g ai/ha, visual rating after 12 to 14 days, scale 0 to 100 (0 no effect, 100 complete control)): 85
